Experimental data taken from ChEMBL document CHEMBL2390818, “Peripherally acting novel lipo-endomorphin-1 peptides in neuropathic pain without producing constipation” (Bioorg Med Chem, 2013).
The source made the active and inactive calls. Peptide text beside a SMILES is read from it.

Assays:
[1] = test system: Rattus norvegicus; test: Antiallodynic activity in iv dosed Sprague-Dawley rat chronic constriction injury model assessed as change in ipsilateral hindpaw withdrawal threshold administered as single bolus dose separated by 2 to 3 days wash-out period; type: functional
[2] = test system: Rattus norvegicus; test: Antiallodynic activity in Sprague-Dawley rat chronic constriction injury model assessed as change in ipsilateral hindpaw withdrawal threshold at 0.16 to 16 umol/kg, iv administered as single bolus dose separated by 2 to 3 days wash-out period; type: functional, organism-based
[3] = test system: Rattus norvegicus; test: Antiallodynic activity in iv dosed Sprague-Dawley rat chronic constriction injury model assessed as change in ipsilateral hindpaw withdrawal threshold administered as single bolus dose separated by 2 to 3 days wash-out period measured at 15 mins to 2 hrs post dose; type: functional, organism-based
[4] = test system: Rattus norvegicus; test: Toxicity in Sprague-Dawley rat castor oil-induced diarrhoea model assessed as induction of constipation at 1.6 to 16 umol/kg, iv administered as single bolus dose incubated for 5 mins prior to castor oil-challenge measured after 8 hrs; type: organism-based; details: in vivo
[5] = test system: Rattus norvegicus; test: Toxicity in Sprague-Dawley rat assessed as induction of constipation measured as gastrointestinal propulsion rate at 16 umol/kg, iv administered as single bolus dose prior to aqueous activated charcoal suspension treatment measured after 1 hr (reference value: 65.3 +/- 3.1%); type: organism-based; details: in vivo
[6] = test system: Rattus norvegicus; test: Antiallodynic activity in Sprague-Dawley rat chronic constriction injury model assessed as change in ipsilateral hindpaw withdrawal threshold at 0.5 to 5 umol/kg, iv administered as single bolus dose; type: functional, organism-based
[7] = test system: Rattus norvegicus; test: Toxicity in Sprague-Dawley rat assessed as induction of respiratory depression measured as change in hypercapnia-induced stimulation of minute ventilation at 1.6 umol/kg, iv administered as single bolus dose after 0.5 to 2 hrs; type: organism-based; details: in vivo
[8] = test system: Rattus norvegicus; test: Antiallodynic activity in iv dosed Sprague-Dawley rat chronic constriction injury model assessed as change in ipsilateral hindpaw withdrawal threshold administered as single bolus dose; type: functional
[9] = test system: Rattus norvegicus; test: Antinociceptive activity in contralateral hindpaw of Sprague-Dawley rat chronic constriction injury model at 5 umol/kg, iv administered as single bolus dose separated by 2 to 3 days wash-out period; type: functional, organism-based
[10] = test system: Rattus norvegicus; test: Antiallodynic activity in Sprague-Dawley rat chronic constriction injury model assessed as change in ipsilateral hindpaw withdrawal threshold at 0.5 umol/kg, iv administered as single bolus dose separated by 2 to 3 days wash-out period; type: functional, organism-based

`CN1CC[C@]23c4c5ccc(O)c4O[C@H]2[C@@H](O)C=C[C@H]3[C@H]1C5` was tested, and the ED50 [1] was 2.64 µmol/kg.
`Cc1cc(O)cc(C)c1C[C@H](N)C(=O)N1CCC[C@H]1C(=O)N[C@@H](Cc1c[nH]c2ccccc12)C(=O)N[C@@H](Cc1ccccc1)C(N)=O` was tested, and the Activity [2] was “inactive”.
For `NC(=O)[C@H](Cc1ccccc1)NC(=O)[C@H](Cc1c[nH]c2ccccc12)NC(=O)[C@@H]1CCCN1C(=O)[C@@H](N)Cc1ccc(O)cc1`, the Activity [2] was “inactive”.
With `CCCCCCC(N)C(=O)N[C@@H](Cc1ccc(O)cc1)C(=O)N1CCC[C@H]1C(=O)N[C@@H](Cc1c[nH]c2ccccc12)C(=O)N[C@@H](Cc1ccccc1)C(N)=O` (stereo partly specified) (HELM PEPTIDE1{[CCCCCCC(N)C(=O)[*:2]].Y.P.W.F.[am]}$$$$V2.0) the Activity [3] was “Dose-dependent effect”, the Activity [4] was “Non-toxic” and the Activity [5] was 77%. The Activity [6] was “Active”, the ED50 [1] was 6.58 µmol/kg and the Activity [7] was “Non-toxic”. The ED50 [8] was 6.64 µmol/kg, the Activity [9] was “inactive” and the Activity [10] was “Active”.
In the case of `CCCCCCC(N)C(=O)N[C@@H](Cc1c(C)cc(O)cc1C)C(=O)N1CCC[C@H]1C(=O)N[C@@H](Cc1c[nH]c2ccccc12)C(=O)N[C@@H](Cc1ccccc1)C(N)=O` (stereo partly specified) (HELM PEPTIDE1{[CCCCCCC(N)C(=O)[*:2]].[Cc1cc(O)cc(C)c1C[C@H](N[*:1])C(=O)[*:2]].P.W.F.[am]}$$$$V2.0), the Activity [3] is reported as “Dose-dependent effect”, the ED50 [1] is reported as 6.18 µmol/kg and the Activity [9] is reported as “inactive”. The Activity [10] was “Active”.
